Earlier results in publication PMC4386841 (Journal of the American Chemical Society, 2015).
Like-named read-outs stand apart in the source and are kept apart here. Values belong to the compound of their own block, whether it stands above or below them.

What was measured:
[1] = molecular target: MIF

Ki ([1]; dopachrome assay): 0.038 µM
SMILES: O=c1c(-c2ccc(O)c(O)c2)coc2cc(O)ccc12 [Orita-13, 3-(3,4-dihydroxyphenyl)-7-hydroxy-4H-chromen-4-one]

Aqueous solubility, literature value: 5.9 µg/mL
SMILES: CN1C(C(=O)Nc2ccccn2)=C(O)c2ccccc2S1(=O)=O [Piroxicam]
